Results taken from article PMC7447632, “Highly functionalized β-lactams and 2-ketopiperazines as TRPM8 antagonists with antiallodynic activity” (Scientific Reports, 2020).
“Also recorded” adds a separate entry of the source.

System: oxaliplatin-induced cold allodynia
Test: Oxaliplatin-induced cold allodynia in mice (acetone test)
Type: in vivo
Settings: for Cold allodynia (cold-induced paw licking, acetone test): oxaliplatin-treated male mice
From the text: Several chemotherapeutic agents in first clinical line induce peripheral neuropathies (known as CIPN), affecting million patients worldwide and limiting the dose administered to them, as well as the quality of life of many survivors. In oxaliplatin CIPN, the increased sensitivity to cold has been correlated to an augmented expression of TRPM8 channels, among others[4]–[6],[57]. In good correlation, there are recent experimental evidences describing that TRPM8 antagonists are able to decrease oxaliplatin-induced allodynia and cold hypersensitivity[34],[58]. According to these discoveries, we decided to explore the effects of β-lactam 24a in an in vivo model of oxaliplatin CIPN, using acetone assay for monitoring cold allodynia. In male mice, the injection of oxaliplatin on days 1, 3 and 5 at a 6 mg/kg dose produces peripheral cold allodynia.
Figure 4 Effects of compound 24a on the oxaliplatin-induced cold allodynia (acetone test). Male mice were treated with oxaliplatin (6 mg/Kg, ip) or vehicle on days 1, 3 and 5. Then, compound 24a (1 µg/ipl, A or 3 µg/ipl, B) was administered to the oxaliplatin treated animals, and the time-course of cold allodynia was measured. Data are given ± SME (n = 5). **P < 0.05; ***P < 0.001; ****P < 0.0001.
Male C57-mice (≈30 g) (Harlam, Holland) were used for the study. All experiments were approved by the Institutional Animal and Ethical Committee of the Universidad Miguel Hernandez where experiments were conducted and they were in accordance with the guidelines of the Economic European Community and the Committee for Research and Ethical Issues of the International Association for the Study of Pain. All parts of the study concerning animal care were performed under the control of veterinarians.
As previously described, oxaliplatin (Tocris) was dissolved in water with gentle warming and was […] injected on days 1, 3 and 5 at a 6 mg/kg dose. The day 7 after administration, experiments were performed. Together with Oxaliplatin injection, saline and a 5% Mannitol solution were intraperitoneally injected to prevent kidney damage and dehydration. The compound 24a stock was prepared in DMSO (Sigma-Aldrich) and diluted in saline for injections. Compound at different doses (1 to 3 μg) was injected into the plantar surface (25 μL) of the right hind paw of mice. Cold chemical thermal sensitivity was assessed using acetone drop method. Mice were placed in a metal mesh cage and allowed to habituate for approximately 30 min in order to acclimatize them. […] Cold chemical sensitive reaction with respect to paw licking was recorded as a positive response (nociceptive pain response). The responses were measured for 20-s with a digital stopwatch. For each measurement, the paw was sampled twice and the mean was calculated. […]

C[C@@H]1C(=O)N(C[C@H](Cc2ccccc2)NC(=O)OCc2ccccc2)[C@]1(Cc1ccccc1)C(=O)OCc1ccccc1 [Compound 24a, 4S-Benzyl-4-benzyloxycarbonyl-3S-methyl-1-[(2′S-benzyloxycarbonylamino-3′-phenyl)prop-1′-yl]-2-oxoazetidine]
Cold allodynia (cold-induced paw licking, acetone test) (1 μg intraplantar): attenuates the cold-induced paw licking in a significant manner | Cold allodynia (cold-induced paw licking, acetone test) (3 µg intraplantar): clearly increased at 15 min, and firmly maintained up to 60 min | Time of maximum antiallodynic activity (intraplantar, after administration): 30 to 60 min | Antiallodynic effect in oxaliplatin-induced peripheral neuropathy (mice, dose not stated): significantly reduced cold allodynia; also recorded: significant antiallodynic effects
